This note sets out measurements from US20170202936A1, “Identification, Optimization And Use Of Cryptic HLA-B7 Epitopes For Immunotherapy” (VAXON BIOTECH, priority 2006, published 2017).

Assay [1] has as its system HLA-B*0702 transgenic mice. In words: CTL induction in vivo in HLA-B*0702 transgenic mice (immunogenicity, cytotoxic assay on peptide-loaded RMA-B7 targets). The arrangement: key to Corresponding native peptide cross-reconnaissance: + for immunogenicity or native peptide cross recognition means that the peptide induced a specific response in at least one HLA-B*0702 transgenic mouse, able to recognized the corresponding native peptide. As to conditions: for Immunogenicity: specific CTL immune response (in words): HLA-B*0702 transgenic mice. Here is the method: (§1) CTL Induction in vivo in HLA-B*0702 Transgenic Mice. Mice were injected subcutaneously with 100 μg of peptide emulsified in Incomplete Freund's Adjuvant (IFA) in the presence of 150 μg of the I-A^b restricted HBVcore128 T helper epitope ([…], SEQ ID NO: 10). After 11 days, 5×10^7 spleen cells were stimulated in vitro with peptide (10 μM). On day 6 of culture, the bulk responder populations were tested for specific cytotoxicity.
(§2) Cytotoxic assay. Targets were labelled with 100 μCi of Cr^51 for 60 min, plated in 96-well V-bottomed plates (3×10^3 cell/well in 100 μL of RPMI 1640 medium) and, when necessary, pulsed with peptides (1 μM) at 37° C. for 2 hours. Effectors were then added in the wells and incubated at 37° C. for 4 hours. Percentage of specific lysis was determined as: % Lysis=(Experimental Release−Spontaneous Release)/(Maximal Release−Spontaneous Release)×100.
(§3) HLA-B7 transgenic mice were vaccinated with the selected peptides, and eleven days later, their spleen cells were in vitro stimulated with the peptide.

The target in a further assay is T1, HLA-B*0702 (Homo sapiens, UniProt P01889).
T1 construct: expressed in transfected cells; host or cells: human T2 cells transfected with HLA-B*0702 (T2-B7)
In words: Measurement of peptide relative affinity to HLA-B*0702 (T2-B7 cells, ME-1 mAb staining). It is filed as binding. Here is the method: The affinity of a peptide for HLA-B*0702 can be determined by methods known in the art, for instance by the assay described by Rohrlich et al., 2003. Results are expressed as relative affinity (RA) when compared to a reference peptide. […] Peptides with RA greater than 10 are therefore considered to be cryptic peptides (or epitopes).
Measurement of Peptide Relative Affinity to HLA-B*0702. The protocol used has been described previously (Rohrlich et al., 2003). Briefly, T2-B7 cells were incubated at 37° C. for 16 hours with peptides concentrations ranging from 100 μM to 0.1 μM, and then stained with ME-1 monoclonal antibody (mAb) to quantify the surface expression of HLA-B*0702. For each peptide concentration, the HLA-B*0702 specific staining was calculated as the percentage of staining obtained with 100 μM of the reference peptide CMV265-274 (R10V; […], SEQ ID NO: 9). The relative affinity (RA) was determined as: RA=(Concentration of each peptide that induces 20% of HLA-B*0702-expression/Concentration of the reference peptide that induces 20% of HLA-B*0702 expression).

Another assay has as its system RMA-B7 targets. In words: Lysis of RMA-B7 targets loaded with decreasing peptide concentrations by murine CTL. As to conditions: CTL from mice immunized with TERT444A1, restimulated in vitro with native TERT444, read-out: Half maximal lysis of peptide loaded targets. It is filed as cell-based. The method, then:
as §1, §2

Assay [2] deals with COS-7 cells transfected with HLA-B*0702 and TERT. In words: Peptide processing assay on COS-7 transfected cells (TNFα secretion by murine CTL). Type of assay: cell-based, simian. As to conditions: COS-7 cells transfected with HLA-B*0702 and/or TERT. Here is the method: Peptide Processing Assay on COS-7 Transfected Cells. 2.2×10^4 simian COS-7 cells were plated in flat-bottomed 96-well plates in DMEM+10% FCS, in triplicate for each condition. Eighteen hours later, cells were transfected with 100 ng of each DNA plasmid with DEAE Dextran. After 4 hours, PBS+10% DMSO was added for 2 minutes. Transfected COS cells were incubated in DMEM+10% FCS during 40 hours and then used to stimulate murine CTL in a TNFα secretion assay.
TNFα Secretion Assay. Transfected COS-7 cells at day 4 were suspended in […] of RPMI+10% FCS and used as stimulating cells. 5×10^4 murine T cells were then added in 50 μl RPMI 10% FCS and incubated for 6 hours. Each condition was tested in triplicate. 50 μl of the supernatant was collected to measure TNFα. Standard dilutions were prepared in 50 μl with final doses of TNFα ranging from 104 to 0 pg/ml. On both the supernatants and the standard dilutions, 3×10^4 TNFα sensitive WEHI-164c13 cells in 50 μl were added. They were incubated for 16 h at 37° C. Inhibition of cell proliferation was evaluated by the MTT colorimetric method (Espevik and Nissen-Meyer, 1986).

The subject of assay [3] is HLA-B*0702 transgenic mice. In words: CTL induction in vivo in HLA-B*0702 transgenic mice (immunogenicity, cytotoxic assay on peptide-loaded RMA-B7 targets). As to conditions: Table IV. The arrangement: key: +: means that a specific immunoresponse was generated at least one HLA-B*0702 transgenic mice. Here is the method:
as §1, §2, §3

Another assay concerns T2-B7 cells. Kind of assay: IFNγ intracellular staining of human CTL stimulated with peptide-loaded T2-B7 cells. Type of assay: cell-based. As to conditions: donor D5609, 4 pools; T2-B7 cells loaded with TERT444 or TERT444A1. Here is the method:
Generation of CTL from human PBMC. PBMC were collected by leukapheresis from healthy HLA-B*0702 volunteers. Dendritic cells (DC) were produced from adherent cells cultured for seven days (2×10^6 cells/ml) in the presence of 500 IU/ml GM-CSF and 500 IU/ml IL-4 (R&D Systems, Minneapolis, Minn.) in complete medium (RPMI-1640 supplemented with 10% heat inactivated human AB serum, […] L-Glutamine and antibiotics). On day seven, DC were pulsed with 10 μM peptides for 2 hrs; maturation agents Poly I:C (Sigma, Oakville, Canada) at 100 ng/ml and anti-CD40 mAb (clone G28-5, ATCC, Manassas, Va.) at 2 μg/ml were added in the culture and DCs were incubated at 37° C. overnight or up to 48 hours. Mature DC were then irradiated (3500 rads). CD8+ cells were purified by positive selection with CD8 MicroBeads (Miltenyi Biotec, Auburn, Calif.) according to the manufacturer's instructions. 2×10^5 CD8^+ cells+6×10^4 CD8^− cells were stimulated with 2×10^4 peptide pulsed DC in complete culture medium supplemented with 1000 IU/ml IL-6 and 5 IU/ml IL-12 (R&D Systems, Minneapolis, Minn.) in round-bottomed 96 well plates. From day seven, cultures were weekly restimulated with peptide-loaded DC in the presence of 20 IU/ml IL-2 (Proleukin, Chiron Corp., Emeryville, Calif.) and 10 ng/ml IL-7 (R&D Systems, Minneapolis, Minn.). […]

The subject of assay [4] is HLA-B*0702 transgenic mice. In words: CTL induction in vivo in HLA-B*0702 transgenic mice (immunogenicity, cytotoxic assay on peptide-loaded RMA-B7 targets). More on the design: key: + for immunogenicity or native peptide cross recognition means that the peptide induced a specific response in at least one HLA-B*0702 transgenic mouse, able to recognized the corresponding native peptide. As to conditions: Table V. Here is the method:
as §1, §2, §3

Entries after “also recorded” stand apart in the source; their conditions may differ.

Turning to DPRRLVQLL [TERT444], the “Immunogenicity: specific CTL immune response (in words)” value in assay [1] was “Only the high affinity TERT4 was immunogenic; also recorded: not immunogenic”. Besides, on HLA-B*0702, the “Affinity for HLA-B*0702 (in words)” value was “low affinity”. The “RA (relative affinity for HLA-B*0702)” value at HLA-B*0702 (T2-B7 cells, 16 hours 37° C., ratio of concentrations inducing 20% HLA-B*0702 expression vs reference peptide CMV265-274) is on record as greater than 10. Moreover, in the assay on RMA-B7 targets, the EC50 came to 5.5 nM.
In the case of APRRLVQLL [TERT444A1], the “Corresponding native peptide cross-reconnaissance” value in assay [1] (CTL induced in HLA-B*0702 transgenic mice) is on record as “+”. In addition, the “Immunogenicity: specific CTL immune response (in words)” value in assay [1] was “induced an immune response in the majority of vaccinated mice”. For the same sequence, the “Affinity for HLA-B*0702 (in words)” value at HLA-B*0702 was “strong affinity”. The RA entry on HLA-B*0702 (class symbols, Table IV) was “+ (+ = 1 < RA < 10)”. For the same sequence, in assay [2], the “Recognition of endogenous TERT by peptide-induced murine CTL” value was “recognized COS-7 cells transfected with both HLA-B*0702 and TERT but not COS-7 cells transfected with either HLA-B*0702 or TERT”. Also, the Immunogenicity entry in assay [3] and in assay [4] was “+” throughout. In the assay on T2-B7 cells, the “Intracellular IFNg production by human CTL” value is “IFNg producing CTL were detected in pools 2 and 4”.
